Literature values, collected in US11077316B2, “Insertion devices and systems for production of emitted light internal to a medium and methods for their use” (Immunolight, LLC, priority 2016, dated 2021).
Like-named read-outs stand apart in the source and are kept apart here.

Legend:
[1] = tested on: Zaire Ebola virus (ZEBOV); conditions: UV light 310 to 360 nm, ex situ in extracted blood
[2] = tested on: Venezuelan equine encephalitis virus (VEEV); conditions: INA exposed to full light conditions
[3] = tested on: Acinetobacter baumannii; conditions: released nitric oxide, light 100 milliWatts per square centimeter
[4] = orange juice, high UV exposure of 100 mJ/cm^2

Compound: [N-]=[N+]=Nc1cccc2c(I)cccc12 [INA, 1,5-iodonaphthyl-azide]
- infectivity of ZEBOV after INA treatment [1]: completely noninfectious
- inactivation of virulent strain of VEEV [2]: efficiently inactivate

Compound: [Mn(PaPy3)(NO)](ClO4)
- clearing of bacteria from treated areas of plates [3]: effectively cleared the bacteria

Compound: O=C1O[C@H]([C@@H](O)CO)C(O)=C1O [Vitamin C]
- degradation of Vitamin C [4]: 17%

Compound: CC(=O)[O-].CC(=O)[O-].CCc1c(CC)c2cc3nc(cnc4cc(OCCOCCOCCOC)c(OCCOCCOCCOC)cc4ncc4nc(cc1[n-]2)C(CCCO)=C4C)C(C)=C3CCCO.O.[Lu+3] [Motexafin lutetium]
- duration of skin photosensitivity (in vivo): 24 to 48 h

Compound: Oc1cccc(-c2c3nc(c(-c4cccc(O)c4)c4ccc([nH]4)c(-c4cccc(O)c4)c4nc(c(-c5cccc(O)c5)c5ccc2[nH]5)CC4)C=C3)c1 [Foscan, Tetra (m-hydroxyphenyl) chlorin]
- duration of skin photosensitivity (clinical): approximately 2 weeks
